Test results from US20200268019A1, “USE OF ZINC AND COPPER GLUCONATE IN THE TREATMENT OF METHICILLIN-RESISTANT STAPHYLOCOCCUS AUREUS” (Distributors Processing, Inc., priority 2015, published 2020).

How the values were obtained:
[1] = Study 1: randomized trial of 0.05% zinc gluconate in pellet feed, productivity and health of pigs; settings: for combined disease and mortality withdrawal rate / pigs treated for diarrhea during the study period: 204 pigs per group, 12 weeks
Protocol: In a randomized trial the effect of the addition of 0.05% zinc gluconate to a standard pellet feed was tested for efficacy against Salmonella, health condition of the digestive system including stomach and intestines, and productivity in pigs, and compared to an otherwise identical diet without zinc gluconate. The control group received zinc in the form of zinc oxide to the same amount as the study group.
408 pigs from a single farm were randomly partitioned into two groups of 204 pigs each and fed with either a pelleted control feed or an otherwise identical pelleted feed comprising 0.05% zinc gluconate. In order maintain comparability of control group to study group and to diminish the influence of lung disease on the mortality of the control group, both groups were twice vaccinated with Porcilis against severe lung disease.
All pigs were followed for 12 weeks starting with their inclusion into the trial and ending with their transport to a meat processing plant. For all pigs in the study data on the feed uptake, growth, eventual diseases suffered during the study period were collected as well as including the complete slaughter records of the meat processing plant into the study. Pigs were included into the trial upon reaching an entry weight of on the average 33 kg. The pigs were weighed at inclusion into the trial, after 6 weeks, and after 12 weeks. […] The pigs in the study were allowed to eat and drink freely and the access to water and dietary was unrestricted.

[2] = Test of efficacy and safety: zinc source in dry feed of domesticated pigs, daily weight gain; settings: for Average daily weight gain: 83 days
Excerpt: In a confirmation experiment the safety of using powdered zinc gluconate as a conventional dietary supplement in the dietary mineral supply of domesticated pigs was examined in a controlled study.
3 groups of pigs, each comprising 11 individuals were identically fed save for the source of zinc as according to Table 1. Group 1, which was the control group, was fed […] 75% zinc oxide per ton dry feed according to normal feeding recommendations. Group 2 was fed zinc gluconate as a powder. Group 3 was fed zinc gluconate and further including 100 g Micro Aid® per ton feed. The amount of zinc fed to the animals of the three study groups was identical and corresponding to 23 g zinc per ton dry feed. Micro Aid® is dietary supplement known to enhance growth and reduce ammonia excretions in domesticated pigs. It is a registered trade mark of DPI Global, 17656 Avenue 168, Porterville, Calif. 93257. Micro Aid® has a recognized effect on the growth increase of pigs on the order of 4% per 100 g added Micro Aid® per ton feed.
The daily gain of weight for each individual was registered during the trial period and the trial was terminated after 83 days. For comparison the expected weight gain of adding Micro Aid® to a feed mixture comprising one of the two zinc sources has been calculated.

Salmonella = assay: Study 1: test for antigens against Salmonella in the blood of pigs; assay type: in vivo; settings: for Relative risk: Salmonella, relative to control; for Pct. positives / Positives: Salmonella-positive blood samples; for Positives: of 126 (control) / 108 (study) samples
Protocol: A subset of the pigs in both study groups were tested for Salmonella prior to shipping out of the test and to the meat processing facility by testing for antigens against Salmonella in the blood. An inclusion rate of 60% was desired for both groups but was not reached for the study group.

[3] = administered as pills; cited from earlier work
[4] = Study 3: birth weight of piglets and milk production of sows; assay type: in vivo
Protocol: (§1) A controlled comparison study between two groups of pigs at two farms in the province of Nordjylland, Denmark, was performed, each farm having about 600 sows in production and each farm feeding the sows in the production zinc according to veterinarian recommendations of 75 ppm zinc per FU. At farm 1, the sows received zinc in the form of zinc oxide whereas at farm 2, the sows received zinc in the form of zinc gluconate.

[5] = Study 2: comparison of two farms, open wounds and footpad lesions in sows; assay type: in vivo
Protocol: as §1

[6] = pigs having weights between 33-65 kg
[7] = pigs weighing between 65-105 kg
[8] = pigs, 11 per group, 23 g zinc per ton dry feed

Compound | combined disease and mortality withdrawal rate [1] | pigs treated for diarrhea during the study period [1] | feeding units (FU) to achieve 1 kg of growth ([1]; average, whole trial 33-105 kg) | feeding units (FU) to achieve 1 kg of growth [1, 6] | feeding units (FU) to achieve 1 kg of growth [1, 7] | Average daily weight gain [2, 8] | Relative risk (Salmonella) | Pct. positives (Salmonella) | Positives (Salmonella) | added zinc taken up by the digestive system [3] | milk production of the sows ([4]; farm 2 compared to farm 1 (zinc oxide)) | weight of piglets at birth ([4]; sows of farm 2) | Average daily weight gain ([2]; Group 3: zinc gluconate further including 100 g Micro Aid per ton feed) | signs of malnourishment or increased infection levels ([2]; regular inspection by a veterinarian) | sows suffering from lesions on their footpads ([5]; sows of farm 2, 75 ppm zinc per FU) | number of open wounds ([5]; sows, 75 ppm zinc per FU, within a month of the dietary change)
[O]=[Zn] [zinc oxide, reference compound] | 1.7% | about 15% | 2,85 FU/kg | 2,53 FU/kg | 3.13 FU/kg | 822 g/daily | 1 | 30.2% | 38 | 20% |  |  |  |  |  | 
zinc gluconate | 1.7% | about 15% | 2.78 FU/kg | 2,51 FU/kg | 3.00 FU/kg | 875 g/daily | 0.56 | 22.2% | 24 |  | increased compared to the sows of farm 1 | above average weight at birth | 910 g/daily | no signs of these conditions were observed | disappeared almost completely | rapid decrease in the number of open wounds
